Experimental findings from US9409917B2, “Heterocyclic amide derivatives as P2X7 receptor antagonists” (ACTELION PHARMACEUTICALS LTD., priority 2012, dated 2016) are described below.

In the first test the target is human recombinant P2X7 receptor (Homo sapiens (Human), UniProt Q99572). Briefly: YO-PRO assay: P2X7 receptor antagonistic activity (ATP-induced YO-PRO-1 uptake, FLIPR).
Chain of human recombinant P2X7 receptor (Q99572 whole entry): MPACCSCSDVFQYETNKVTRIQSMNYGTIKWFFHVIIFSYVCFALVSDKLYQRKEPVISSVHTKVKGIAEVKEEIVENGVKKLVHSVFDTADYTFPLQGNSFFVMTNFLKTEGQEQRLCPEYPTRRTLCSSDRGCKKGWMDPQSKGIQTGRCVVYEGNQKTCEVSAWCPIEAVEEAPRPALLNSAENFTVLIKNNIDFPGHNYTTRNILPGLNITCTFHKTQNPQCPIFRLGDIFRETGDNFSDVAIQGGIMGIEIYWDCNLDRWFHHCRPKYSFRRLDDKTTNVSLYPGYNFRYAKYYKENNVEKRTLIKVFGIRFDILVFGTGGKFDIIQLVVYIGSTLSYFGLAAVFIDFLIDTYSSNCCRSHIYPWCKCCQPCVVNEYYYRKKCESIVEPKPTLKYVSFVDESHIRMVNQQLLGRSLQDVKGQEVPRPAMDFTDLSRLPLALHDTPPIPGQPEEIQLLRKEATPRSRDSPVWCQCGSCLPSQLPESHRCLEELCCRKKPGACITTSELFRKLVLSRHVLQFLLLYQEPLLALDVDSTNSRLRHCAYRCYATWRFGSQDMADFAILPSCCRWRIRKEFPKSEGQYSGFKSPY
Details: not given
Turning to `O=C(NCc1ccc(Oc2ccccc2)cc1)C1CCOc2ncccc21` (racemic) [Example 33, rac-3,4-Dihydro-2H-pyrano[2,3-b]pyridine-4-carboxylic acid 4-phenoxy-benzylamide], the IC50 came to 255 nM.

Take `NC(=O)C1(NC(=O)C2COc3ncccc32)CCCC1` (racemic) [Example 63, rac-2,3-Dihydro-furo[2,3-b]pyridine-3-carboxylic acid (1-carbamoyl-cyclopentyl)-amide]: the 50% inhibitory concentration (IC50) came out at 3850 nM. For `O=C(NCC1(c2ccccc2)CCCCC1)C1CCOc2ncccc21` (racemic) [Example 54, rac-3,4-Dihydro-2H-pyrano[2,3-b]pyridine-4-carboxylic acid (1-phenyl-cyclohexylmethyl)-amide], the half-maximal inhibitory concentration (IC50) stood at 25.8 nM.

On to `Cc1c(Cl)cccc1CNC(=O)C1COc2ncccc21` (racemic) [Example 42, rac-2,3-Dihydro-furo[2,3-b]pyridine-3-carboxylic acid 3-chloro-2-methyl-benzylamide], for which the IC50 is 46.9 nM. As for `O=C(NCC(c1cnc(C(F)(F)F)nc1)N1CCOCC1)C1COc2ncccc21` (single isomer, unassigned) [Example 59, rac-2,3-Dihydro-furo[2,3-b]pyridine-3-carboxylic acid [2-morpholin-4-yl-2-(2-trifluoromethyl-pyrimidin-5-yl)-ethyl]-amide], the half-inhibitory concentration (IC50) was determined as 346 nM.

As to `O=C(NCc1cccc(Cl)c1Cl)C1CCOc2ncccc21` (racemic) [Example 34, rac-3,4-Dihydro-2H-pyrano[2,3-b]pyridine-4-carboxylic acid 2,3-dichloro-benzylamide], the IC50 came out at 10.7 nM. As to `O=C(NCc1cccc(Cl)c1Cl)C1COc2ncccc21` (racemic) [Example 45, rac-2,3-Dihydro-furo[2,3-b]pyridine-3-carboxylic acid 2,3-dichloro-benzylamide], the 50% inhibitory concentration (IC50) is 37.2 nM. On the same count and under the same terms, for `C=Cc1cc(Cl)cc(Cl)c1CNC(=O)C1COc2ncccc21` (racemic) [Example 23, rac-2,3-Dihydro-furo[2,3-b]pyridine-3-carboxylic acid 2,4-dichloro-6-vinyl-benzylamide] the value was 12.2 nM; for `CN(Cc1ccc(Cl)cc1)C(=O)C1COc2ncccc21` (racemic) [Example 48, rac-2,3-Dihydro-furo[2,3-b]pyridine-3-carboxylic acid (4-chloro-benzyl)-methyl-amide], 1090 nM. Still for that read-out and setting: for `O=C(NCc1ccc(F)cc1Cl)C1CCOc2ncccc21` (racemic) [Example 32, rac-3,4-Dihydro-2H-pyrano[2,3-b]pyridine-4-carboxylic acid 2-chloro-4-fluoro-benzylamide] the value was 25 nM; for `Cc1ncc(C(CNC(=O)C2COc3ncccc32)N2CCC(F)(F)CC2)cn1` (single isomer, unassigned) [Example 27, rac-2,3-Dihydro-furo[2,3-b]pyridine-3-carboxylic acid [2-(4,4-difluoro-piperidin-1-yl)-2-(2-methyl-pyrimidin-5-yl)-ethyl]-amide], 1360 nM. Still for that read-out and setting: the figure for `CCc1cc(Cl)cc(Cl)c1CNC(=O)C1COc2ncccc21` (racemic) [Example 22, rac-2,3-Dihydro-furo[2,3-b]pyridine-3-carboxylic acid 2,4-dichloro-6-ethyl-benzylamide] is 1.5 nM. `Cc1cc(Cl)cc(Cl)c1CNC(=O)C1(F)CCOc2ncccc21` (racemic) [Example 12, rac-4-Fluoro-3,4-dihydro-2H-pyrano[2,3-b]pyridine-4-carboxylic acid 2,4-dichloro-6-methyl-benzylamide]: the IC50 came out at 3.1 nM.

With `O=C(NCc1cccc(Cl)c1Cl)C1(F)COc2ncccc21` (racemic) [Example 20, rac-3-Fluoro-2,3-dihydro-furo[2,3-b]pyridine-3-carboxylic acid 2,3-dichloro-benzylamide], the IC50 amounted to 67.9 nM.

The test is the same for the next values; noted with them: read-out: IC50 [nM], antagonistic activities with respect to the P2X7 receptor.
For “(S)-2,3-Dihydro-furo[2,3-b]pyridine-3-carboxylic acid (R)-indan-1-ylamide and (R)-2,3-Dihydro-furo[2,3-b]pyridine-3-carboxylic acid (R)-indan-1-ylamide [Example 69]”, the IC50 is 400 nM.

Still in this test, the particulars now being: read-out: IC50 [nM], antagonistic activities with respect to the P2X7 receptor; HEK-293 cells expressing human recombinant P2X7 receptor; YO-PRO-1 fluorescence; ATP 250 μM, 90 minutes; highest concentration 10 μM.
Consider `Cc1cc(Cl)cc(Cl)c1CNC(=O)C1COc2ncccc21` (single isomer, unassigned) [Example 3, 2,3-Dihydro-furo[2,3-b]pyridine-3-carboxylic acid 2,4-dichloro-6-methyl-benzylamide], for which the IC50 is 18.3 nM.

As to `Cc1ccc(C(CNC(=O)C2COc3ncccc32)N2CCOCC2)cn1` (centres unmarked) [Example 90, 2,3-Dihydro-furo[2,3-b]pyridine-3-carboxylic acid [2-(6-methyl-pyridin-3-yl)-2-morpholin-4-yl-ethyl]-amide], the IC50 is 1150 nM. Still for that read-out and setting: for “(S)-2,3-Dihydro-furo[2,3-b]pyridine-3-carboxylic acid ((1S,2R)-2-hydroxy-indan-1-yl)-amide and (R)-2,3-Dihydro-furo[2,3-b]pyridine-3-carboxylic acid ((1S,2R)-2-hydroxy-indan-1-yl)-amide [Example 65]” the value was 3400 nM; for `O=C(N[C@H](CO)c1ccc(Cl)cc1Cl)C1COc2ncccc21` (single isomer, unassigned) [Example 7], 117 nM. Consider `O=C(N[C@H](CO)C1CCCCC1)C1COc2ncccc21` (single isomer, unassigned) [Example 1], for which the IC50 turned out to be 1070 nM. The same measure, in the same setting: the figure for `O=C(N[C@@H]1CCCc2cccc(Cl)c21)C1COc2ncccc21` (stereo partly drawn) [Example 111, 2,3-Dihydro-furo[2,3-b]pyridine-3-carboxylic acid ((R)-8-chloro-1,2,3,4-tetrahydro-naphthalen-1-yl)-amide] is 221 nM. Still for that read-out and setting: for `O=C(N[C@H](CO)c1ccc(Cl)cc1Cl)[C@H]1CCOc2ncccc21` (mixture of isomers) [Example 9, (S)-3,4-Dihydro-2H-pyrano[2,3-b]pyridine-4-carboxylic acid [(S)-1-(2,4-dichloro-phenyl)-2-hydroxy-ethyl]-amide and (R)-3,4-Dihydro-2H-pyrano[2,3-b]pyridine-4-carboxylic acid [(S)-1-(2,4-dichloro-phenyl)-2-hydroxy-ethyl]-amide] the value was 70.8 nM; for `O=C(NCc1c(Cl)cc(Cl)cc1CO)C1COc2ncccc21` (single isomer, unassigned) [Example 25, 2,3-Dihydro-furo[2,3-b]pyridine-3-carboxylic acid 2,4-dichloro-6-hydroxymethyl-benzylamide], 2.7 nM.

As a reminder, the IC50 is the concentration that inhibits the measured activity by half.
